Reference: patent publication EP3202813A1, “CURABLE COMPOSITION AND MOLDED ARTICLE COMPRISING THE COMPOSITION” (Telene SAS, priority 2016, dated 2017)

Test: Half-life t1/2CT of radical generators, calculated by Arrhenius formulae from supplier data
Assay type: physicochemical
From the text: The half-life of the radical generators used in the compositions for different curing temperatures CT have been calculated by using the well-known formulae given below and data obtained by the supplier of the radical generators (AkzoNobel) (Tables 1-4) kd = A⋅e^(−Ea/RT) [formula] t½ = (ln2)/kd [formula] • Ea = 127.52 kJ/mole • A = 7.59E+13 s^-1 • R = 8.3142 J/mole·K • T = (273.15+°C) K Table 1: The half-life t1/2CT of Trigonox 29C at different curing temperatures CT
kd = A⋅e^(−Ea/RT) [formula] t½ = (ln2)/kd [formula] • Ea = 124.90 kJ/mole • A = 1.54E+14 s^-1 • R = 8.3142 J/mole·K • T = (273.15+°C) K Table 2: The half-life t1/2CT of Trigonox 21S at different curing temperatures CT
kd = A⋅e^(−Ea/RT) [formula] t½ = (ln2)/kd [formula] • Ea = 140.78 kJ/mole • A 1.94E+15 s^-1 • R = 8.3142 J/mole·K • T =(273.15+°C) K Table 3: The half-life t1/2CT of Trigonox 42S at different curing temperatures CT
kd = A⋅e^(−Ea/RT) [formula] t½ = (ln2)/kd [formula] • Ea = 153.46 kJ/mole • A = 4.20E+15 s^-1 • R = 8.3142 J/mole·K • T = (273.15+°C) K Table 4: The half-life t1/2CT of Trigonox B at different curing temperatures CT

CC(C)(C)OOC(C)(C)C [Trigonox B, tert-butyl peroxide]
t1/2 (T 80 °C): 2291.85 h
t1/2 (h) (T 80 °C): 2291,8 h
t1/2 (min) (T 80 °C): 137511,0 min
t1/2 (T 90 °C): 543.4131 h
t1/2 (h) (T 90 °C): 543,4 h
t1/2 (min) (T 90 °C): 32604,8 min
t1/2 (T 95 °C): 272.481 h
t1/2 (h) (T 95 °C): 272,5 h
t1/2 (min) (T 95 °C): 16348,8 min
t1/2 (T 100 °C): 139.18 h
t1/2 (h) (T 100 °C): 139,2 h
t1/2 (min) (T 100 °C): 8350,8 min
t1/2 (T 105 °C): 72.3653 h
t1/2 (h) (T 105 °C): 72,4 h
t1/2 (min) (T 105 °C): 4341,9 min
t1/2 (T 110 °C): 38.2736 h
t1/2 (h) (T 110 °C): 38,3 h
t1/2 (min) (T 110 °C): 2296,4 min
t1/2 (T 120 °C): 11.239 h
t1/2 (h) (T 120 °C): 11,2 h
t1/2 (min) (T 120 °C): 674,4 min
t1/2 (T 130 °C): 3.5075 h
t1/2 (h) (T 130 °C): 3,5 h
t1/2 (min) (T 130 °C): 210,4 min
t1/2 (T 150 °C): 0.4028 h
t1/2 (h) (T 150 °C): 0,4 h
t1/2 (min) (T 150 °C): 24,2 min
t1/2 (T 190 °C): 0.00944 h
t1/2 (h) (T 190 °C): 0,01 h
t1/2 (min) (T 190 °C): 0,6 min
